Reference: the supplement of paper PMC11061612

Tests used:
Experiment in all cases: Bliss excess, mean over the matrix (fraction); higher = more synergy
[1] = system: BxPC-3 (Pancreatic Carcinoma)
In short: (§1)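 Bliss excess equals the observed combination effect minus the expected value EA + EB − EA·EB, where EA and EB are the effects of each agent alone. Combination Emax is the second-highest inhibition within the matrix. Inhibition was scaled from CellTiter-Glo 2.0 luminescence, with 0 set by vehicle wells and 1 by blank wells, after 72 hours of two-drug dosing of cells plated in 1536-well plates.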

NB1 (Neuroblastoma) = system: NB1 (Neuroblastoma)
In short: as §1

GAK (Melanoma) = system: GAK (Melanoma)
In short: as §1

[2] = system: T84 (Colorectal Carcinoma)
In short: as §1

[3] = system: KP-4 (Pancreatic Carcinoma)
In short: as §1

[4] = system: PL4 (Pancreatic Carcinoma)
In short: as §1

[5] = system: SUP-M2 (T-Cell Non-Hodgkin's Lymphoma)
In short: as §1

[6] = system: NCI-H596 (Other Solid Carcinomas)
In short: as §1

IST-MEL1 (Melanoma) = system: IST-MEL1 (Melanoma)
In short: as §1

[7] = system: NAMALWA (Burkitt's Lymphoma)
In short: as §1

[8] = system: OVCAR-3 (Ovarian Carcinoma)
In short: as §1

[9] = system: MONO-MAC-6 (Acute Myeloid Leukemia)
In short: as §1

[10] = system: NCI-H1341 (Small Cell Lung Carcinoma)
In short: as §1

[11] = system: MS-1 (Small Cell Lung Carcinoma)
In short: as §1

AM-38 (Glioblastoma) = system: AM-38 (Glioblastoma)
In short: as §1

NCI-H2373 (Mesothelioma) = system: NCI-H2373 (Mesothelioma)
In short: as §1

[12] = system: NCI-H1876 (Small Cell Lung Carcinoma)
In short: as §1

[13] = system: OAW-28 (Ovarian Carcinoma)
In short: as §1

[14] = system: NCI-H3118 (Head and Neck Carcinoma)
In short: as §1

[15] = system: Raji (Burkitt's Lymphoma)
In short: as §1

| Compound | Bliss excess [1] | Bliss excess (NB1 (Neuroblastoma)) | Bliss excess (GAK (Melanoma)) | Bliss excess [2] | Bliss excess [3] | Bliss excess [4] | Bliss excess [5] | Bliss excess [6] | Bliss excess (IST-MEL1 (Melanoma)) | Bliss excess [7] | Bliss excess [8] | Bliss excess [9] | Bliss excess [10] | Bliss excess [11] | Bliss excess (AM-38 (Glioblastoma)) | Bliss excess (NCI-H2373 (Mesothelioma)) | Bliss excess [12] | Bliss excess [13] | Bliss excess [14] | Bliss excess [15] |
| --- | --- | --- | --- | --- | --- | --- | --- | --- | --- | --- | --- | --- | --- | --- | --- | --- | --- | --- | --- | --- |
| NC1(C(=O)N[C@@H](CCO)c2ccc(Cl)cc2)CCN(c2ncnc3[nH]ccc23)CC1 [Capivasertib] + C[C@@H]1COCCN1C2=NC(=NC(=C2)C3(CC3)[S@](=N)(=O)C)C4=C5C=CNC5=NC=C4 [AZD6738] (first compound max 10 µM, 7x7, partner max 10 µM) | -0.0076 | -0.0341 | -0.0552 | -0.111 | -0.0371 | -0.0328 | 0.0523 | -0.0105 | -0.0446 | -0.0194 | -0.0169 | -0.0397 | -0.0251 | -0.0465 | -0.0121 | -0.0301 | 0.0649 | 0.0005 | -0.0807 | 0.0187 |
| NC1(C(=O)N[C@@H](CCO)c2ccc(Cl)cc2)CCN(c2ncnc3[nH]ccc23)CC1 [Capivasertib] + Cn1cnc2c(F)c(Nc3ccc(Br)cc3Cl)c(C(=O)NOCCO)cc21 [Selumetinib] (first compound max 10 µM, 7x7, partner max 10 µM) | -0.0091 | 0.0054 | -0.0649 | -0.0598 | 0.0084 | -0.0314 | 0.0835 | 0.0182 | 0.0465 | -0.0231 | -0.0223 | 0.0394 | 0.0605 | -0.005 | 0.0564 | -0.0381 | 0.0122 | -0.0034 | 0.091 | 0.0036 |
| COc1cccc2c1C(=O)c1c(O)c3c(c(O)c1C2=O)C[C@@](O)(C(=O)CO)C[C@@H]3O[C@H]1C[C@H](N)[C@H](O)[C@H](C)O1 [Doxorubicin] + Cc1cc2ncnn2cc1Nc1ncc2c(n1)n(C1CCOCC1)c(=O)n2C [AZD7648] (first compound max 1 µM, 7x7, partner max 10 µM) | 0.0216 | 0.0581 | 0.0711 | -0.0081 | 0.0583 | 0.0391 | 0.112 | -0.006 | 0.0511 | 0.0765 | 0.0489 | 0.0935 | 0.0628 | 0.0686 | 0.114 | 0.0433 | 0.144 | 0.0209 | 0.0731 | 0.0979 |
| COc1cc2ncnc(Nc3ccc(F)c(Cl)c3)c2cc1OCCCN1CCOCC1 [Gefitinib] + CC(C)n1c(=O)n(C)c2cnc3cc(F)c(-c4ccc(OCCCN5CCCCC5)nc4)cc3c21 [AZD1390] (first compound max 10 µM, 7x7, partner max 0.3 µM) | -0.0692 | -0.0419 | -0.0656 | -0.035 | -0.073 | -0.055 | -0.0522 | -0.0474 | -0.0684 | -0.0355 | -0.056 | -0.0545 | -0.0399 | -0.0252 | -0.0811 | -0.0751 | -0.074 | -0.0392 | -0.0011 | -0.0343 |
| CS(=O)(=O)CCNCc1ccc(-c2ccc3ncnc(Nc4ccc(OCc5cccc(F)c5)c(Cl)c4)c3c2)o1 [Lapatinib] + C[C@@H](Oc1cc(-c2cnn(C3CCNCC3)c2)cnc1N)c1c(Cl)ccc(F)c1Cl [Crizotinib] (first compound max 10 µM, 7x7, partner max 10 µM) | -0.0259 | 0.0158 | -0.0066 | -0.006 | -0.0775 | 0.0434 | 0.0299 | -0.0065 | -0.0095 | -0.0528 | -0.0161 | -0.0438 | 0.0876 | -0.0784 | -0.0295 | -0.0258 | 0.0167 | -0.0177 | 0.0337 | 0.0203 |
| CC(=O)c1c(C)c2cnc(Nc3ccc(N4CCNCC4)cn3)nc2n(C2CCCC2)c1=O [Palbociclib] + CC1(C)CCC(CN2CCN(c3ccc(C(=O)NS(=O)(=O)c4ccc(NCC5CCOCC5)c([N+](=O)[O-])c4)c(Oc4cnc5[nH]ccc5c4)c3)CC2)=C(c2ccc(Cl)cc2)C1 [Venetoclax] (first compound max 10 µM, 7x7, partner max 1 µM) | -0.0429 | -0.0154 | -0.034 | -0.0556 | -0.104 | -0.0521 | -0.0058 | -0.0501 | 0.0117 | -0.0648 | -0.0356 | 0.0129 | 0.0245 | -0.0827 | -0.0058 | -0.0421 | 0.0162 | -0.0112 | -0.0142 | 0.0634 |
| CC(=O)c1c(C)c2cnc(Nc3ccc(N4CCNCC4)cn3)nc2n(C2CCCC2)c1=O [Palbociclib] + Cc1c2c(nn1C)CSCc1cc(n(C)n1)CSc1cc(c3ccccc3c1)OCCCc1c(C(=O)O)n(C)c3c-2c(Cl)ccc13 [AZD5991] (first compound max 10 µM, 7x7, partner max 1 µM) | -0.0528 | -0.061 | -0.0234 | -0.0578 | -0.0249 | -0.0458 | -0.0132 | -0.13 | -0.0328 | -0.0139 | -0.0553 | -0.0016 | -0.031 | -0.0451 | -0.0448 | -0.0396 | 0.0191 | 0.0058 | 0.0084 | -0.0109 |
| CC(=O)c1c(C)c2cnc(Nc3ccc(N4CCNCC4)cn3)nc2n(C2CCCC2)c1=O [Palbociclib] + Cn1cnc2c(F)c(Nc3ccc(Br)cc3Cl)c(C(=O)NOCCO)cc21 [Selumetinib] (first compound max 10 µM, 7x7, partner max 10 µM) | -0.0238 | -0.0669 | 0.0221 | -0.0476 | -0.0235 | -0.0553 | 0.0342 | -0.0393 | 0.052 | -0.0123 | -0.0361 | 0.0184 | -0.0199 | -0.0601 | 0.0242 | -0.0239 | 0.0495 | -0.0301 | 0.0418 | -0.0103 |
| COc1cccc(OCCCN)c1-c1cc(Nc2cnc(C#N)cn2)n[nH]1 [Prexasertib] + C=CCn1c(=O)c2cnc(Nc3ccc(N4CCN(C)CC4)cc3)nc2n1-c1cccc(C(C)(C)O)n1 [AZD1775] (first compound max 1 µM, partner max 1 µM) | -0.0074 | 0.0693 | 0.0832 | 0.144 | 0.0861 | 0.0483 | 0.102 | 0.0087 | 0.0406 | 0.06 | 0.16 | 0.168 | 0.13 | 0.0972 | 0.0907 | 0.0601 | 0.0393 | 0.0319 | 0.0483 | 0.0907 |
| COc1cccc(OCCCN)c1-c1cc(Nc2cnc(C#N)cn2)n[nH]1 [Prexasertib] + CCc1c2c(nc3ccc(O)cc13)-c1cc3c(c(=O)n1C2)COC(=O)[C@]3(O)CC [SN-38] (first compound max 1 µM, 7x7, partner max 0.3 µM) | 0.0111 | -0.0529 | 0.0087 | 0.0636 | 0.0454 | -0.0027 | -0.0099 | 0.0625 | -0.0552 | -0.0197 | 0.141 | 0.0092 | -0.0174 | -0.0051 | -0.0317 | 0.0224 | 0.0067 | -0.0269 | 0.0162 | -0.0279 |
| COc1cccc(OCCCN)c1-c1cc(Nc2cnc(C#N)cn2)n[nH]1 [Prexasertib] + CN(C)CCCOc1ccc(-c2ccc3ncc4c(c3c2)n(C2CCOCC2)c(=O)n4C)cn1 [AZD0156] (first compound max 1 µM, 7x7, partner max 1 µM) | -0.0582 | 0.142 | 0.0668 | 0.0016 | 0 | -0.0387 | 0.0163 | -0.0909 | -0.05 | -0.0133 | -0.0178 | 0.0031 | -0.032 | 0.0205 | 0.0112 | 0.0329 | -0.044 | -0.0139 | -0.036 | -0.0105 |
| COc1cccc(OCCCN)c1-c1cc(Nc2cnc(C#N)cn2)n[nH]1 [Prexasertib] + C[C@@H]1COCCN1C2=NC(=NC(=C2)C3(CC3)[S@](=N)(=O)C)C4=C5C=CNC5=NC=C4 [AZD6738] (first compound max 1 µM, 7x7, partner max 10 µM) | -0.0535 | 0.0001 | -0.0092 | -0.0026 | 0.0072 | -0.0024 | -0.0061 | 0.0159 | -0.0131 | -0.0052 | 0.032 | 0.0104 | -0.0683 | -0.0136 | -0.0074 | -0.0628 | 0.0095 | 0.0102 | -0.032 | -0.0472 |
| COc1cccc(OCCCN)c1-c1cc(Nc2cnc(C#N)cn2)n[nH]1 [Prexasertib] + Cc1cc2ncnn2cc1Nc1ncc2c(n1)n(C1CCOCC1)c(=O)n2C [AZD7648] (first compound max 1 µM, 7x7, partner max 10 µM) | -0.0908 | 0.0251 | -0.0028 | -0.0904 | 0.0031 | 0.0048 | 0.0696 | -0.026 | -0.0046 | 0.0087 | -0.0213 | 0.0406 | 0.0194 | -0.0228 | 0.0296 | -0.0099 | -0.0713 | -0.025 | -0.0501 | -0.0135 |
| COc1cccc(OCCCN)c1-c1cc(Nc2cnc(C#N)cn2)n[nH]1 [Prexasertib] + O=C(c1cc(Cc2n[nH]c(=O)c3ccccc23)ccc1F)N1CCN(C(=O)C2CC2)CC1 [Olaparib] (first compound max 1 µM, 7x7, partner max 10 µM) | -0.0706 | -0.0411 | -0.0159 | -0.0119 | 0.0261 | 0.0356 | 0.0298 | 0.0098 | -0.124 | -0.044 | 0.0265 | -0.0195 | -0.0022 | -0.0481 | 0.0359 | 0.001 | -0.0338 | -0.0348 | -0.0501 | 0.0082 |
| COc1cc2c(cc1OCCCCCOc1cc3c(cc1OC)C(=O)N1C=C(C)C[C@H]1C=N3)N=C[C@@H]1CC(C)=CN1C2=O [SG3199] + O=C(c1cc(Cc2n[nH]c(=O)c3ccccc23)ccc1F)N1CCN(C(=O)C2CC2)CC1 [Olaparib] (first compound max 0.001 µM, 7x7, partner max 10 µM) | -0.0403 | -0.0418 | -0.0238 | -0.0279 | -0.0366 | 0.0304 | 0.0274 | -0.0681 | -0.0196 | 0.0018 | -0.0205 | -0.015 | -0.0059 | 0.0418 | -0.0032 | 0.0054 | -0.0267 | -0.0263 | -0.0471 | 0.0002 |
